Results from US20120270929A1, “MODULATION OF TTC39 EXPRESSION TO INCREASE HDL” (ISIS Pharmaceuticals, Inc., priority 2009, published 2012).
Oligonucleotides are written 5' to 3', each unit as a sugar letter and its base; * is a phosphorothioate linkage, no mark a phosphodiester; rarer units and linkages stand in square brackets, end groups in braces. Plain capitals give the bases only. e = 2'-O-(2-methoxyethyl) (MOE); [5mC] = 5-methylcytosine; d = 2'-deoxy (DNA)

Columns and labels:
[1] = test system: murine TTC39B mRNA; assay: Dose-dependent antisense inhibition of murine TTC39B in mouse primary hepatocytes (Example 3); format: cell-based; settings: cytofectin, ~16 h
Procedure: Cells were plated at a density of 10,000 cells per well and transfected using cytofectin reagent with 6.25 nM, 12.5 nM, 25 nM, 50 nM, 100 nM, and 200 nM concentrations of antisense oligonucleotide, as specified in Table 4. After a treatment period of approximately 16 hours, RNA was isolated from the cells and TTC39B mRNA levels were measured by quantitative real-time PCR. Murine primer probe set mTtc39b_LTS00287 was used to measure mRNA levels. TTC39B mRNA levels were adjusted according to total RNA content, as measured by RIBOGREEN®. Results are presented as percent inhibition of TTC39B, relative to untreated control cells.

[2] = Body and organ weights in C57BL/6 mice; format: in vivo, mouse; settings: for Kidney weight after treatment / Liver weight after treatment / Spleen weight after treatment: 50 mg/kg/week, 6 weeks
Procedure: (§1) Four groups of five mice each were injected twice a week with 25 mg/kg (totaling 50 mg/kg/week) of ISIS 447114, ISIS 447118, ISIS 447143, or ISIS 447144 for 6 weeks. A control group of five mice was injected with phosphate buffered saline (PBS) twice a week for 6 weeks. Plasma samples were obtained before the start of treatment, at week 3 and at week 6. At the end of the treatment period, mice were fasted for 4 hours before being euthanized. Plasma and tissue samples were obtained for further analysis.
Body weights of all the mice were measured weekly till the end of the treatment period. Organ weights were taken at the end of the treatment period when the mice were euthanized.

[3] = test system: SRB1 mRNA; assay: SRB1 mRNA levels in C57BL/6 mice after TTC39B inhibition; format: in vivo, mouse; settings: 50 mg/kg/week, 6 weeks
Procedure: as §1
(§2) The effect of inhibition of TTC39B in mice on these proteins of reverse cholesterol transport was studied. RNA levels of ABCA1 were measured using murine primer probe set RTS1204 (forward sequence […], designated herein as SEQ ID NO: 97; reverse sequence […], designated herein as SEQ ID NO: 98; and probe sequence […], designated herein as SEQ ID NO: 99). RNA levels of apoA1 were measured using murine primer probe set RTS14737 (forward sequence […], designated herein as SEQ ID NO: 100; reverse sequence […], designated herein as SEQ ID NO: 101; and probe sequence […], designated herein as SEQ ID NO: 102). RNA levels of SRB1 were measured using murine primer probe set mSRB-1 (forward sequence […], designated herein as SEQ ID NO: 103; reverse sequence ATGCGACTTGTCAGGCTGG, designated herein as SEQ ID NO: 104; and probe sequence […], designated herein as SEQ ID NO: 105).

[4] = test system: murine TTC39B mRNA; assay: Antisense inhibition of murine TTC39B in mouse primary hepatocytes, single dose; format: cell-based; settings: 100 nM, cytofectin, ~24 h, vs untreated control; gapmers targeted to SEQ ID NO: 6
Procedure, shortened: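 Mouse primary hepatocytes transfected by cytofectin with 100 nM 5-10-5 MOE gapmer (20-mer, phosphorothioate, 5-methylcytosine) for ~24 h. TTC39B mRNA quantified by real-time qPCR, normalized to RIBOGREEN total RNA. Values given as percent inhibition versus untreated cells.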

[5] = test system: apoA1 mRNA; assay: apoA1 mRNA levels in C57BL/6 mice after TTC39B inhibition; format: in vivo, mouse; settings: 50 mg/kg/week, 6 weeks
Procedure: as §1, §2

[6] = test system: LDLR mRNA; assay: LDLR mRNA levels in C57BL/6 mice; format: in vivo, mouse; settings: 50 mg/kg/week, 6 weeks, compared to PBS control
Procedure: as §1
The effect of inhibition of TTC39B in mice on cholesterol homeostasis was studied. PCSK9 mRNA levels were measured using the murine primer probe set mPCSK9 (forward sequence ACCGACTTCAACAGCGTGC, designated herein as SEQ ID NO: 106; reverse sequence GGCTGTCACACTTGCTCGC, designated herein as SEQ ID NO: 107, probe sequence AGGATGGGACACGCTTCCACAGACAX, wherein X is a fluorophore, designated herein as SEQ ID NO: 108). LDLR mRNA levels were measured using the murine primer probe set mLDLR (forward sequence GACCGCAGCGAGTACACCA, designated herein as SEQ ID NO: 109; reverse sequence TCACCTCCGTGTCGAGAGC, designated herein as SEQ ID NO: 110, probe sequence […], designated herein as SEQ ID NO: 111). The results are presented as percentage inhibition compared to the PBS control.

CGGATGATTCTTGCTGGTAA (antisense e[5mC]*eG*eG*eA*eT*dG*dA*dT*dT*d[5mC]*dT*dT*dG*d[5mC]*dT*eG*eG*eT*eA*eA) [ISIS 447114]
percent inhibition of TTC39B mRNA ([1]; 6.25 nM): 6%
percent inhibition of TTC39B mRNA ([1]; 12.5 nM): 5%
percent inhibition of TTC39B mRNA ([1]; 25.0 nM): 34%
percent inhibition of TTC39B mRNA ([1]; 50.0 nM): 71%
percent inhibition of TTC39B mRNA ([1]; 100.0 nM): 90%
percent inhibition of TTC39B mRNA ([1]; 200.0 nM): 93%
Kidney weight after treatment [2]: 0.33 g
Liver weight after treatment [2]: 1.3 g
Spleen weight after treatment [2]: 0.09 g
body weight ([2]; Week 3, 50 mg/kg/week): 26 g
body weight ([2]; Week 6, 50 mg/kg/week): 27 g
body weight ([2]; week 1, 50 mg/kg/week): 25 g
body weight ([2]; week 2, 50 mg/kg/week): 25 g
body weight ([2]; week 4, 50 mg/kg/week): 26 g
body weight ([2]; week 5, 50 mg/kg/week): 27 g
srb1 mRNA levels (effect of TTC39B inhibition) [3]: −12
% inhibition of murine TTC39B mRNA [4]: 73%
apoA1 mRNA levels (effect of TTC39B inhibition) [5]: −14
Percent inhibition LDLR mRNA levels [6]: 2%

GCAGCTCGATTCGGGCATGA (antisense eG*e[5mC]*eA*eG*e[5mC]*dT*d[5mC]*dG*dA*dT*dT*d[5mC]*dG*dG*dG*e[5mC]*eA*eT*eG*eA) [ISIS 447118]
percent inhibition of TTC39B mRNA ([1]; 6.25 nM): 0%
percent inhibition of TTC39B mRNA ([1]; 12.5 nM): 24%
percent inhibition of TTC39B mRNA ([1]; 25.0 nM): 45%
percent inhibition of TTC39B mRNA ([1]; 50.0 nM): 66%
percent inhibition of TTC39B mRNA ([1]; 100.0 nM): 77%
percent inhibition of TTC39B mRNA ([1]; 200.0 nM): 81%
Kidney weight after treatment [2]: 0.32 g
Liver weight after treatment [2]: 1.4 g
Spleen weight after treatment [2]: 0.08 g
body weight ([2]; Week 3, 50 mg/kg/week): 26 g
body weight ([2]; Week 6, 50 mg/kg/week): 27 g
body weight ([2]; week 1, 50 mg/kg/week): 24 g
body weight ([2]; week 2, 50 mg/kg/week): 25 g
body weight ([2]; week 4, 50 mg/kg/week): 26 g
body weight ([2]; week 5, 50 mg/kg/week): 27 g
srb1 mRNA levels (effect of TTC39B inhibition) [3]: 0
% inhibition of murine TTC39B mRNA [4]: 76%
apoA1 mRNA levels (effect of TTC39B inhibition) [5]: −23
Percent inhibition LDLR mRNA levels [6]: 6%

GCCACCAGTGCCTGCTGAGC (antisense eG*e[5mC]*e[5mC]*eA*e[5mC]*d[5mC]*dA*dG*dT*dG*d[5mC]*d[5mC]*dT*dG*d[5mC]*eT*eG*eA*eG*e[5mC]) [ISIS 447143]
percent inhibition of TTC39B mRNA ([1]; 6.25 nM): 7%
percent inhibition of TTC39B mRNA ([1]; 12.5 nM): 25%
percent inhibition of TTC39B mRNA ([1]; 25.0 nM): 44%
percent inhibition of TTC39B mRNA ([1]; 50.0 nM): 72%
percent inhibition of TTC39B mRNA ([1]; 100.0 nM): 88%
percent inhibition of TTC39B mRNA ([1]; 200.0 nM): 94%
Kidney weight after treatment [2]: 0.34 g
Liver weight after treatment [2]: 1.5 g
Spleen weight after treatment [2]: 0.08 g
body weight ([2]; Week 3, 50 mg/kg/week): 27 g
body weight ([2]; Week 6, 50 mg/kg/week): 28 g
body weight ([2]; week 1, 50 mg/kg/week): 26 g
body weight ([2]; week 2, 50 mg/kg/week): 26 g
body weight ([2]; week 4, 50 mg/kg/week): 27 g
body weight ([2]; week 5, 50 mg/kg/week): 28 g
srb1 mRNA levels (effect of TTC39B inhibition) [3]: 0
% inhibition of murine TTC39B mRNA [4]: 74%
apoA1 mRNA levels (effect of TTC39B inhibition) ([5]; 50 mg/kg): average increase
apoA1 mRNA levels (effect of TTC39B inhibition) ([5]; listed as 447143, 50 mg/kg): +1
Percent inhibition LDLR mRNA levels [6]: 34%

TATTTCTATAGCTCATGACA (antisense eT*eA*eT*eT*eT*d[5mC]*dT*dA*dT*dA*dG*d[5mC]*dT*d[5mC]*dA*eT*eG*eA*e[5mC]*eA) [ISIS 447144]
Kidney weight after treatment [2]: 0.34 g
Liver weight after treatment [2]: 1.3 g
Spleen weight after treatment [2]: 0.08 g
body weight ([2]; Week 3, 50 mg/kg/week): 26 g
body weight ([2]; Week 6, 50 mg/kg/week): 28 g
body weight ([2]; week 1, 50 mg/kg/week): 25 g
body weight ([2]; week 2, 50 mg/kg/week): 26 g
body weight ([2]; week 4, 50 mg/kg/week): 27 g
body weight ([2]; week 5, 50 mg/kg/week): 27 g
srb1 mRNA levels (effect of TTC39B inhibition) [3]: 0
% inhibition of murine TTC39B mRNA [4]: 69%
apoA1 mRNA levels (effect of TTC39B inhibition) ([5]; 50 mg/kg): average increase
apoA1 mRNA levels (effect of TTC39B inhibition) ([5]; listed as 447144, 50 mg/kg): +50
Percent inhibition LDLR mRNA levels [6]: 2%
